Target: T1, GLP-1R (Homo sapiens, UniProt P43220)
T1 construct: expressed in transfected cells; host or cells: HEK293
Assay: GLP-1R agonist assay: CRE6x-LUC luciferase reporter in transiently transfected HEK293 cells
Assay type: cell-based
Conditions: not given
Procedure: Briefly, HEK293 cells were plated at a density of 2−3×10^3 cells per well onto clear-bottom, white, 96-well plates and grown for 2 days to ˜80% confluency. Cells were then transiently transfected by using Lipofectamine reagent (Invitrogen) with cDNA encoding (1) a GPCR (or empty expression vector); (ii) a cAMP-responsive element-luciferase reporter gene (CRE6X-luc), and (iv) β-galactosidase as a control. Cells were incubated with or without the selected peptide agonist in serum-free medium for 6 h. Luciferase activity was quantified by using Steadylite reagent (Perkin-Elmer). A β-galactosidase assay then was performed after adding the enzyme substrate 2-nitrophenyl β-d-galactopyranoside.
Cellular assays for receptor binding and intracellular signaling were carried out with the compounds of the invention. Briefly, HEK 293 cells were transiently transfected with cDNAs encoding (i) GLP-1R (or the empty expression vector), (ii) the CRE6x-LUC reporter gene (which senses cAMP production triggered by receptor stimulation), and (iii) β-galactosidase (as a control for transfection efficiency). After transfection for 24 h, cells were incubated with a peptide at various concentrations (or control/blank) in serum-free medium for 6 h. The cells were then lysed, SteadyLite reagent (PerkinElmer) is added, and luciferase activity is measured in a TopCount NXT HTS plate luminometer. After further incubation with a chromogenic substrate (2-nitrophenyl β-D-galactopyranoside), optical density at 420 nm is determined by spectrophotometry, as a control to correct for interwell transfection variability. Sigmoidal concentration-response curves of GLP-1R ligand activity is calculated to determine potency.
Plotting concentration versus the luciferase activity yielded quantitative parameters for combined binding (potency) and signaling (efficacy) in a single step. […] DPP4 treated peptides: 10 μl of 0.26 mM peptide were incubated with 2 μL DPP4 in buffer ±DMSO for 18 hrs. Control peptides: 10 μl of 0.26 mM peptide was added to buffer ±DMSO. The final DMSO concentration was the same for all peptides and all peptides were diluted to 0.26 mM concentrations for the DPP4 assay.

T1 sequence (P43220 24-463, species assumed): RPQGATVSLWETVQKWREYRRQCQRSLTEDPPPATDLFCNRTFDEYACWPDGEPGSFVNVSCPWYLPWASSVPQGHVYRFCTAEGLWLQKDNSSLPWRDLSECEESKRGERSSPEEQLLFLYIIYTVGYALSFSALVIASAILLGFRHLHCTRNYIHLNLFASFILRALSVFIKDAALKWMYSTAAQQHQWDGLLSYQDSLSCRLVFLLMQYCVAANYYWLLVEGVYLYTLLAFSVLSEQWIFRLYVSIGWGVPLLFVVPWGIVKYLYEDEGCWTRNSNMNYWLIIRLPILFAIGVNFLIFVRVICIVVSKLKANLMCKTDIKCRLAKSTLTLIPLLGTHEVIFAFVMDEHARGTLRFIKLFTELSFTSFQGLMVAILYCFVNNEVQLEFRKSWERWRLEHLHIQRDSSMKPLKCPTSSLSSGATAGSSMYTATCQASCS

Compound `CC[C@H](C)[C@H](NC(=O)[C@H](Cc1ccccc1)NC(=O)[C@H](CCC(=O)O)NC(=O)[C@H](CCCCN)NC(=O)[C@H](C)NC(=O)[C@H](C)NC(=O)[C@H](CCC(N)=O)NC(=O)CNC(=O)[C@H](CCC(=O)O)NC(=O)[C@H](CC(C)C)NC(=O)[C@H](Cc1ccc(O)cc1)NC(=O)[C@H](CO)NC(=O)[C@H](CO)NC(=O)[C@@H](NC(=O)[C@H](CC(=O)O)NC(=O)[C@H](CO)NC(=O)[C@@H](NC(=O)[C@H](Cc1ccccc1)NC(=O)[C@@H](NC(=O)CNC(=O)[C@H](CCC(=O)O)NC(=O)[C@H](C)NC(=O)[C@H](Cc1c[nH]cn1)NC[C@H](C)N)[C@@H](C)O)[C@@H](C)O)C(C)C)C(=O)N[C@@H](C)C(=O)N[C@@H](Cc1c[nH]c2ccccc12)C(=O)N[C@@H](CC(C)C)C(=O)N[C@H](C(=O)N[C@@H](CCCCN)C(=O)NCC(=O)N[C@@H](CCCNC(=N)N)C(N)=O)C(C)C` has an EC50 of 2.6 pM.

Same assay, conditions: Receptor GLP-1R; agonist potency; read-out: EC50

In order of rising EC50:
1. CC[C@H](C)[C@H](NC(=O)[C@H](Cc1ccccc1)NC(=O)[C@H](CCC(=O)O)NC(=O)[C@H](CCCCN)NC(=O)[C@H](C)NC(=O)[C@H](C)NC(=O)[C@H](CCC(N)=O)NC(=O)CNC(=O)[C@H](CCC(=O)O)NC(=O)[C@H](CC(C)C)NC(=O)[C@H](Cc1ccc(O)cc1)NC(=O)[C@H](CO)NC(=O)[C@H](CO)NC(=O)[C@@H](NC(=O)[C@H](CC(=O)O)NC(=O)[C@H](CO)NC(=O)[C@@H](NC(=O)[C@H](Cc1ccccc1)NC(=O)[C@@H](NC(=O)CNC(=O)[C@H](CCC(=O)O)NC(=O)[C@H](C)NC(=O)[C@H](Cc1c[nH]cn1)NCc1ccc(O)cc1)[C@@H](C)O)[C@@H](C)O)C(C)C)C(=O)N[C@@H](C)C(=O)N[C@@H](Cc1c[nH]c2ccccc12)C(=O)N[C@@H](CC(C)C)C(=O)N[C@H](C(=O)N[C@@H](CCCCN)C(=O)NCC(=O)N[C@@H](CCCNC(=N)N)C(N)=O)C(C)C  1 pM
2. CC[C@H](C)[C@H](NC(=O)[C@H](Cc1ccccc1)NC(=O)[C@H](CCC(=O)O)NC(=O)[C@H](CCCCN)NC(=O)[C@H](C)NC(=O)[C@H](C)NC(=O)[C@H](CCC(N)=O)NC(=O)CNC(=O)[C@H](CCC(=O)O)NC(=O)[C@H](CC(C)C)NC(=O)[C@H](Cc1ccc(O)cc1)NC(=O)[C@H](CO)NC(=O)[C@H](CO)NC(=O)[C@@H](NC(=O)[C@H](CC(=O)O)NC(=O)[C@H](CO)NC(=O)[C@@H](NC(=O)[C@H](Cc1ccccc1)NC(=O)[C@@H](NC(=O)CNC(=O)[C@H](CCC(=O)O)NC(=O)[C@H](C)NC(=O)[C@H](Cc1c[nH]cn1)NCC(C)C)[C@@H](C)O)[C@@H](C)O)C(C)C)C(=O)N[C@@H](C)C(=O)N[C@@H](Cc1c[nH]c2ccccc12)C(=O)N[C@@H](CC(C)C)C(=O)N[C@H](C(=O)N[C@@H](CCCCN)C(=O)NCC(=O)N[C@@H](CCCNC(=N)N)C(N)=O)C(C)C [drawing 47]  3.7 pM
3. CC[C@H](C)[C@H](NC(=O)[C@H](Cc1ccccc1)NC(=O)[C@H](CCC(=O)O)NC(=O)[C@H](CCCCN)NC(=O)[C@H](C)NC(=O)[C@H](C)NC(=O)[C@H](CCC(N)=O)NC(=O)CNC(=O)[C@H](CCC(=O)O)NC(=O)[C@H](CC(C)C)NC(=O)[C@H](Cc1ccc(O)cc1)NC(=O)[C@H](CO)NC(=O)[C@H](CO)NC(=O)[C@@H](NC(=O)[C@H](CC(=O)O)NC(=O)[C@H](CO)NC(=O)[C@@H](NC(=O)[C@H](Cc1ccccc1)NC(=O)[C@@H](NC(=O)CNC(=O)[C@H](CCC(=O)O)NC(=O)[C@H](C)NC(=O)[C@H](Cc1c[nH]cn1)NCC12CC3CC(CC(C3)C1)C2)[C@@H](C)O)[C@@H](C)O)C(C)C)C(=O)N[C@@H](C)C(=O)N[C@@H](Cc1c[nH]c2ccccc12)C(=O)N[C@@H](CC(C)C)C(=O)N[C@H](C(=O)N[C@@H](CCCCN)C(=O)NCC(=O)N[C@@H](CCCNC(=N)N)C(N)=O)C(C)C  3.9 pM
4. CC[C@H](C)[C@H](NC(=O)[C@H](Cc1ccccc1)NC(=O)[C@H](CCC(=O)O)NC(=O)[C@H](CCCCN)NC(=O)[C@H](C)NC(=O)[C@H](C)NC(=O)[C@H](CCC(N)=O)NC(=O)CNC(=O)[C@H](CCC(=O)O)NC(=O)[C@H](CC(C)C)NC(=O)[C@H](Cc1ccc(O)cc1)NC(=O)[C@H](CO)NC(=O)[C@H](CO)NC(=O)[C@@H](NC(=O)[C@H](CC(=O)O)NC(=O)[C@H](CO)NC(=O)[C@@H](NC(=O)[C@H](Cc1ccccc1)NC(=O)[C@@H](NC(=O)CNC(=O)[C@H](CCC(=O)O)NC(=O)[C@H](C)NC(=O)[C@H](Cc1c[nH]cn1)NC(C)C)[C@@H](C)O)[C@@H](C)O)C(C)C)C(=O)N[C@@H](C)C(=O)N[C@@H](Cc1c[nH]c2ccccc12)C(=O)N[C@@H](CC(C)C)C(=O)N[C@H](C(=O)N[C@@H](CCCCN)C(=O)NCC(=O)N[C@@H](CCCNC(=N)N)C(N)=O)C(C)C  4.1 pM
5. CC[C@H](C)[C@H](NC(=O)[C@H](Cc1ccccc1)NC(=O)[C@H](CCC(=O)O)NC(=O)[C@H](CCCCN)NC(=O)[C@H](C)NC(=O)[C@H](C)NC(=O)[C@H](CCC(N)=O)NC(=O)CNC(=O)[C@H](CCC(=O)O)NC(=O)[C@H](CC(C)C)NC(=O)[C@H](Cc1ccc(O)cc1)NC(=O)[C@H](CO)NC(=O)[C@H](CO)NC(=O)[C@@H](NC(=O)[C@H](CC(=O)O)NC(=O)[C@H](CO)NC(=O)[C@@H](NC(=O)[C@H](Cc1ccccc1)NC(=O)[C@@H](NC(=O)CNC(=O)[C@H](CCC(=O)O)NC(=O)[C@H](C)NC(=O)[C@H](Cc1c[nH]cn1)NCc1ccccc1)[C@@H](C)O)[C@@H](C)O)C(C)C)C(=O)N[C@@H](C)C(=O)N[C@@H](Cc1c[nH]c2ccccc12)C(=O)N[C@@H](CC(C)C)C(=O)N[C@H](C(=O)N[C@@H](CCCCN)C(=O)NCC(=O)N[C@@H](CCCNC(=N)N)C(N)=O)C(C)C [drawing 51]  4.4 pM
6. CCN[C@@H](Cc1c[nH]cn1)C(=O)N[C@@H](C)C(=O)N[C@@H](CCC(=O)O)C(=O)NCC(=O)N[C@H](C(=O)N[C@@H](Cc1ccccc1)C(=O)N[C@H](C(=O)N[C@@H](CO)C(=O)N[C@@H](CC(=O)O)C(=O)N[C@H](C(=O)N[C@@H](CO)C(=O)N[C@@H](CO)C(=O)N[C@@H](Cc1ccc(O)cc1)C(=O)N[C@@H](CC(C)C)C(=O)N[C@@H](CCC(=O)O)C(=O)NCC(=O)N[C@@H](CCC(N)=O)C(=O)N[C@@H](C)C(=O)N[C@@H](C)C(=O)N[C@@H](CCCCN)C(=O)N[C@@H](CCC(=O)O)C(=O)N[C@@H](Cc1ccccc1)C(=O)N[C@H](C(=O)N[C@@H](C)C(=O)N[C@@H](Cc1c[nH]c2ccccc12)C(=O)N[C@@H](CC(C)C)C(=O)N[C@H](C(=O)N[C@@H](CCCCN)C(=O)NCC(=O)N[C@@H](CCCNC(=N)N)C(N)=O)C(C)C)[C@@H](C)CC)C(C)C)[C@@H](C)O)[C@@H](C)O  6.4 pM
7. CC[C@H](C)[C@H](NC(=O)[C@H](Cc1ccccc1)NC(=O)[C@H](CCC(=O)O)NC(=O)[C@H](CCCCN)NC(=O)[C@H](C)NC(=O)[C@H](C)NC(=O)[C@H](CCC(N)=O)NC(=O)CNC(=O)[C@H](CCC(=O)O)NC(=O)[C@H](CC(C)C)NC(=O)[C@H](Cc1ccc(O)cc1)NC(=O)[C@H](CO)NC(=O)[C@H](CO)NC(=O)[C@@H](NC(=O)[C@H](CC(=O)O)NC(=O)[C@H](CO)NC(=O)[C@@H](NC(=O)[C@H](Cc1ccccc1)NC(=O)[C@@H](NC(=O)CNC(=O)[C@H](CCC(=O)O)NC(=O)[C@H](C)NC(=O)[C@H](Cc1c[nH]cn1)NCc1ccc(C2(C(F)(F)F)N=N2)cc1)[C@@H](C)O)[C@@H](C)O)C(C)C)C(=O)N[C@@H](C)C(=O)N[C@@H](Cc1c[nH]c2ccccc12)C(=O)N[C@@H](CC(C)C)C(=O)N[C@H](C(=O)N[C@@H](CCCCN)C(=O)NCC(=O)N[C@@H](CCCNC(=N)N)C(N)=O)C(C)C  123 pM
8. CC[C@H](C)[C@H](NC(=O)[C@H](Cc1ccccc1)NC(=O)[C@H](CCC(=O)O)NC(=O)[C@H](CCCCN)NC(=O)[C@H](C)NC(=O)[C@H](C)NC(=O)[C@H](CCC(N)=O)NC(=O)CNC(=O)[C@H](CCC(=O)O)NC(=O)[C@H](CC(C)C)NC(=O)[C@H](Cc1ccc(O)cc1)NC(=O)[C@H](CO)NC(=O)[C@H](CO)NC(=O)[C@@H](NC(=O)[C@H](CC(=O)O)NC(=O)[C@H](CO)NC(=O)[C@@H](NC(=O)[C@H](Cc1ccccc1)NC(=O)[C@@H](NC(=O)CNC(=O)[C@H](CCC(=O)O)NC(=O)[C@H](C)NC(=O)[C@H](Cc1c[nH]cn1)NC[C@@H](O)[C@@H](O)[C@H](O)[C@H](O)CO)[C@@H](C)O)[C@@H](C)O)C(C)C)C(=O)N[C@@H](C)C(=O)N[C@@H](Cc1c[nH]c2ccccc12)C(=O)N[C@@H](CC(C)C)C(=O)N[C@H](C(=O)N[C@@H](CCCCN)C(=O)NCC(=O)N[C@@H](CCCNC(=N)N)C(N)=O)C(C)C  3200 pM
